# Tests used:
# [1] = system: ST390 (modeling pancreatic ductal adenocarcinoma (PDAC)); test: TGI in PDAC PDX model ST390; type: in vivo, NOD/SCID mice; conditions: 6 mg/kg QD, PO, vehicle ~1,250 mm^3
# Description: In the PDAC model, Compound 101 was orally administered to tumor-bearing NOD/SCID mice at 6 mg/kg QD. […] The % regression was calculated as: (Mean TV Compound 101 @ EOT)/(Mean TV Compound 101 @ Day 0)×100. The same calculations were used for end of study (day 42).
# [2] = system: BR5010, LU5178, OV15398 PDX models; test: TGI in PDX models BR5010 (TNBC), LU5178 (SCLC), OV15398 (HGSOC); type: in vivo, NOD/SCID mice; conditions: TNBC 10 mg/kg QD or 5 mg/kg BID, HGSOC 3 mg/kg BID, PO 21 days, 21 days follow-up
# [3] = system: 12 PDX models (SCLC, TNBC, HGSOC); test: TGI and tolerability in 12 PDX models of SCLC, TNBC and HGSOC; type: in vivo
# [4] = Plasma exposure on repeated daily dosing in mice; type: in vivo; conditions: repeated daily dosing at therapeutic doses in mice (1-6 mg/kg)
# [5] = system: ovarian and breast tumor xenografts; test: Daily oral dosing in ovarian and breast tumor xenografts; type: in vivo
compound,measurement,setting,value
"CC1(C)CC[C@H](Nc2ncc(C(F)(F)F)c(-c3c[nH]c4c(P(C)(C)=O)c(C#N)ccc34)n2)CN1 [Compound 101, (S)-7-(dimethylphosphoryl)-3-(2-((6,6-dimethylpiperidin-3-yl)amino)-5-(trifluoromethyl)pyrimidin-4-yl)-1H-indole-6-carbonitrile]",tumor volume at day 21,[1],about 250 mm^3
same,TGI (in words),[2],"deep and sustained TGI, including regressions"
same,"TGI at the end of the 21-day dosing period, all models","[3]; 6 or 10 mg/kg QD or 3 or 5 mg/kg BID PO, all 12 models",at least 50%
same,body weight loss / tolerability,"[3]; all once-daily doses tested, tumor-bearing mice",no evident body weight loss
same,tumor regrowth after treatment discontinuation,"[3]; subset 7/12 models, 21 days after treatment discontinuation",no evidence of tumor regrowth
same,TGI of deep responses in a subset of models,"[3]; subset of models (58%, 7/12), TGI or regression",> 95%
same,plasma exposures,[4],dose proportional without accumulation
same,pharmacodynamic responses in xenograft tumor tissue,[5]; correlated with TGI,rapid (4 hours) and sustained (24 hours) dose-dependent pharmacodynamic responses
same,TGI (in words),[5]; daily oral dosing,dose-dependent TGI
same,lowest dose at which tumor regression was observed,[5]; daily oral dosing,one-fifth of MTD
